Target: purified human Hsp90
Assay: Binding Assay: fluorescence polarization with BODIPY-labeled geldanamycin
Settings: BODIPY-GM 10 nM, Hsp90 30 nM
Method: Compound binding to purified Hsp90 was monitored using BODIPY-labeled geldanamycin (BODIPY-GM) in a fluorescence polarization assay adapted from Kim et al. (Journal of Biomolecular Screening 2004, 9(5):375-381). Compound dilutions (in 100% DMSO) were added to black-bottom 96-well plates (Greiner; 2% DMSO final), and equal volumes of BODIPY-GM (10 nM final) and purified human Hsp90 (Stressgen, SPP-770; 30 nM final) in assay buffer (20 mM HEPES-KOH pH 7.3, 50 mM KCl, 5 mM MgCl2, 20 mM Na2MoO4, 0.01% NP-40, 0.1 mg/mL bovine gamma globulin [Invitrogen, P2045], 2 mM DTT) were added sequentially to yield a final volume of 50 microliters. Plates were incubated overnight at room temperature. Parallel and perpendicular fluorescence measurements were read (LJL BioSystems Analyst AD plate reader) with excitation/emission wavelengths of 485/530 nm. Background fluorescence (buffer only) was subtracted, and fluorescence polarization (FP) values, expressed in mP units, were calculated from parallel and perpendicular fluorescence readings as follows: FP=(parallel−perpendicular)/(parallel+perpendicular)*1000
Percent inhibition was calculated by normalizing the FP values to those obtained in parallel reactions containing DMSO and subtracting these normalized values from 100%. Intrinsic compound fluorescence was independently monitored, and FP data points confounded by compound fluorescence were excluded from the analysis.

Row | SMILES | IC50 [nM] | % Inhibition at 5 μM Compound Concentration [%]
1 | Nc1ncn(CCCc2ccccc2)c2nc(Sc3cc4c(cc3Br)OCO4)nc1-2 [Example 44, 8-(6-bromo-benzo[1,3]dioxol-5-ylsulfanyl)-3-(3-phenyl-propyl)-3H-purin-6-ylamine] | 27000 | 
2 | COc1cc(Sc2nc3c(N)ncnc3n2CCc2ccccc2)cc(OC)c1OC [Example 45, 9-Phenethyl-8-(3,4,5-trimethoxy-phensulfanyl)-9H-purin-6-ylamine] | 8100 | 
3 | COc1cc(Sc2nc3c(N)ncnc3n2CCCc2ccccc2)cc(OC)c1OC [Example 47, 9-(3-Phenyl-propyl)-8-(3,4,5-trimethoxy-phenylsulfanyl)-9H-purin-6-ylamine] | > 10000 | 
4 | Nc1ncnc2c1nc(Sc1ccc3c(c1)OCO3)n2CCCn1cccc1 [Example 51, 8-(Benzo[1,3]dioxol-5-ylsulfanyl)-9-(3-pyrrol-1-yl-propyl)-9H-purin-6-ylamine] | 1500 | 52
5 | Nc1ncn(CCCn2cccc2)c2nc(Sc3ccc4c(c3)OCO4)nc1-2 [Example 52, 8-(benzo[1,3]dioxol-5-ylsulfanyl)-3-(3-pyrrol-1-yl-propyl)-3H-purin-6-ylamine] |  | 0
6 | Nc1ncn(CCc2ccccc2Cl)c2nc(Sc3cc4c(cc3Br)OCO4)nc1-2 [Example 54, 8-(6-bromo-benzo[1,3]dioxol-5-ylsulfanyl)-3-[2-(2-chloro-phenyl)-ethyl]-3H-purin-6-ylamine] |  | 13
7 | COc1ccc(OC)c(Sc2nc3c(N)ncnc3n2CCc2c(C)cc(C)cc2C)c1 [Example 55, 8-(2,5-Dimethoxy-phenylsulfanyl)-9-[2-(2,4,6-trimethyl-phenyl)-ethyl]-9H-purin-6-ylamine] | 1700 | 
8 | CCC(Cn1c(Sc2cc3c(cc2Br)OCO3)nc2c(N)ncnc21)c1ccccc1 (stereo not shown) [Example 57, 8-(6-Bromo-benzo[1,3]dioxol-5-ylsulfanyl)-9-(2-phenyl-butyl)-9H-purin-6-ylamine] | 400 | 
9 | CCC(Cn1cnc(N)c2nc(Sc3cc4c(cc3Br)OCO4)nc1-2)c1ccccc1 (stereo not shown) [Example 58, 8-(6-bromo-benzo[1,3]dioxol-5-ylsulfanyl)-3-(2-phenyl-butyl)-3H-purin-6-ylamine] |  | 8
10 | COc1ccc(C2(Cn3c(Sc4cc5c(cc4Br)OCO5)nc4c(N)ncnc43)CC2)cc1 [Example 59, 8-(6-Bromo-benzo[1,3]dioxol-5-ylsulfanyl)-9-[1-(4-methoxy-phenyl)-cyclopropylmethyl]-9H-purin-6-ylamine] | > 25000 | 
11 | COc1ccc(OC)c(Sc2nc3c(N)ncn(CC4(c5ccc(Cl)cc5)CCC4)c-3n2)c1 [Example 62, 3-[1-(4-chloro-phenyl)-cyclobutylmethyl]-8-(2,5-dimethoxy-phenylsulfanyl)-3H-purin-6-ylamine] | > 10000 | 
12 | COc1ccc(OC)c(Sc2nc3c(N)ncnc3n2CCc2ccc(C(C)=O)cc2)c1 [Example 63, 1-(4-{2-[6-Amino-8-(2,5-dimethoxy-phenylsulfanyl)-purin-9-yl]-ethyl}-phenyl)-ethanone] | > 5000 | 
13 | COc1ccc(OC)c(Sc2nc3c(N)ncn(CCn4cccc4)c-3n2)c1 [Example 66, 8-(2,5-dimethoxy-phenylsulfanyl)-3-(2-pyrrol-1-yl-ethyl)-3H-purin-6-ylamine] |  | 5
14 | COc1ccc(OC)c(Sc2nc3c(N)ncnc3n2CCc2cccc3ccccc23)c1 [Example 67, 8-(2,5-Dimethoxy-phenylsulfanyl)-9-(2-naphthalen-1-yl-ethyl)-9H-purin-6-ylamine] | 1500 | 56
15 | COc1ccc(OC)c(Sc2nc3c(N)ncnc3n2CCc2ccccc2C)c1 [Example 69, 8-(2,5-Dimethoxy-phenylsulfanyl)-9-(2-o-tolyl-ethyl)-9H-purin-6-ylamine] | 250 | 69
16 | COc1ccc(OC)c(Sc2nc3c(N)ncn(CCc4ccccc4C)c-3n2)c1 [Example 70, 8-(2,5-dimethoxy-phenylsulfanyl)-3-(2-o-tolyl-ethyl)-3H-purin-6-ylamine] |  | 7
17 | COc1ccc(OC)c(Sc2nc3c(N)ncnc3n2CCc2ccc(Br)cc2)c1 [Example 71, 9-[2-(4-Bromo-phenyl)-ethyl]-8-(2,5-dimethoxy-phenylsulfanyl)-9H-purin-6-ylamine] | > 25000 | 41
18 | COc1ccc(OC)c(Sc2nc3c(N)ncn(CCc4ccc(Br)cc4)c-3n2)c1 [Example 72, 3-[2-(4-bromo-phenyl)-ethyl]-8-(2,5-dimethoxy-phenylsulfanyl)-3H-purin-6-ylamine] |  | 0
19 | COc1ccc(OC)c(Sc2nc3c(N)ncnc3n2CCc2cccc(Cl)c2Cl)c1 [Example 73, 9-[2-(2,3-Dichloro-phenyl)-ethyl]-8-(2,5-dimethoxy-phenylsulfanyl)-9H-purin-6-ylamine] | > 3000 | 2
20 | COc1ccc(OC)c(Sc2nc3c(N)ncnc3n2CCc2cccc(Br)c2)c1 [Example 77, 9-[2-(3-Bromo-phenyl)-ethyl]-8-(2,5-dimethoxy-phenylsulfanyl)-9H-purin-6-ylamine] | 1900 | 

Next, values leading:

Row | IC50 [nM] | % Inhibition at 5 μM Compound Concentration [%] | SMILES
21 | > 10000 |  | COc1cc(Sc2nc3c(N)ncn(CCc4ccccc4)c-3n2)cc(OC)c1OC [Example 46, 3-phenethyl-8-(3,4,5-trimethoxy-phenylsulfanyl)-3H-purin-6-ylamine]
22 | > 10000 |  | COc1cc(Sc2nc3c(N)ncn(CCCc4ccccc4)c-3n2)cc(OC)c1OC [Example 48, 3-(3-phenyl-propyl)-8-(3,4,5-trimethoxy-phenylsulfanyl)-3H-purin-6-ylamine]
23 | 1200 | 55 | Nc1ncnc2c1nc(Sc1ccc3c(c1)OCO3)n2CCn1cccc1 [Example 49, 8-(Benzo[1,3]dioxol-5-ylsulfanyl)-9-(2-pyrrol-1-yl-ethyl)-9H-purin-6-ylamine]
24 |  | 3 | Nc1ncn(CCn2cccc2)c2nc(Sc3ccc4c(c3)OCO4)nc1-2 [Example 50, 8-(benzo[1,3]dioxol-5-ylsulfanyl)-3-(2-pyrrol-1-yl-ethyl)-3H-purin-6-ylamine]
25 | 45 |  | Nc1ncnc2c1nc(Sc1cc3c(cc1Br)OCO3)n2CCc1ccccc1Cl [Example 53, 8-(6-Bromo-benzo[1,3]dioxol-5-ylsulfanyl)-9-[2-(2-chloro-phenyl)-ethyl]-9H-purin-6-ylamine]
26 |  | 3 | COc1ccc(OC)c(Sc2nc3c(N)ncn(CCc4c(C)cc(C)cc4C)c-3n2)c1 [Example 56, 8-(2,5-dimethoxy-phenylsulfanyl)-3-[2-(2,4,6-trimethyl-phenyl)-ethyl]-3H-purin-6-ylamine]
27 |  | 30 | COc1ccc(C2(Cn3cnc(N)c4nc(Sc5cc6c(cc5Br)OCO6)nc3-4)CC2)cc1 [Example 60, 8-(6-bromo-benzo[1,3]dioxol-5-ylsulfanyl)-3-[1-(4-methoxy-phenyl)-cyclopropylmethyl]-3H-purin-6-ylamine]
28 | > 10000 |  | COc1ccc(OC)c(Sc2nc3c(N)ncnc3n2CC2(c3ccc(Cl)cc3)CCC2)c1 [Example 61, 9-[1-(4-Chloro-phenyl)-cyclobutylmethyl]-8-(2,5-dimethoxy-phenylsulfanyl)-9H-purin-6-ylamine]
29 | > 5000 |  | COc1ccc(OC)c(Sc2nc3c(N)ncn(CCc4ccc(C(C)=O)cc4)c-3n2)c1 [Example 64, 1-(4-{2-[6-amino-8-(2,5-dimethoxy-phenylsulfanyl)-purin-3-yl]-ethyl}-phenyl)-ethanone]
30 | 500 | 61 | COc1ccc(OC)c(Sc2nc3c(N)ncnc3n2CCn2cccc2)c1 [Example 65, 8-(2,5-Dimethoxy-phenylsulfanyl)-9-(2-pyrrol-1-yl-ethyl)-9H-purin-6-ylamine]
31 |  | 0 | COc1ccc(OC)c(Sc2nc3c(N)ncn(CCc4cccc5ccccc45)c-3n2)c1 [Example 68, 8-(2,5-dimethoxy-phenylsulfanyl)-3-(2-naphthalen-1-yl-ethyl)-3H-purin-6-ylamine]
32 |  | 0 | COc1ccc(OC)c(Sc2nc3c(N)ncn(CCc4cccc(Cl)c4Cl)c-3n2)c1 [Example 74, 3-[2-(2,3-dichloro-phenyl)-ethyl]-8-(2,5-dimethoxy-phenylsulfanyl)-3H-purin-6-ylamine]
33 | 2900 |  | COc1ccc(OC)c(Sc2nc3c(N)ncnc3n2CCc2ccc(O)cc2)c1 [Example 75, 4-{2-[6-Amino-8-(2,5-dimethoxy-phenylsulfanyl)-purin-9-yl]-ethyl}-phenol]
34 |  | 6 | COc1ccc(OC)c(Sc2nc3c(N)ncnc3n2CCc2ccc(O)cc2)c1 [Example 76, 4-{2-[6-amino-8-(2,5-dimethoxy-phenylsulfanyl)-purin-9-yl]-ethyl}-phenol]
35 |  | 17 | COc1ccc(OC)c(Sc2nc3c(N)ncn(CCc4cccc(Br)c4)c-3n2)c1 [Example 78, 3-[2-(3-bromo-phenyl)-ethyl]-8-(2,5-dimethoxy-phenylsulfanyl)-3H-purin-6-ylamine]
36 | 300 |  | COc1ccc(OC)c(Sc2nc3c(N)ncnc3n2CCc2cccc(C(F)(F)F)c2)c1 [Example 79, 8-(2,5-Dimethoxy-phenylsulfanyl)-9-[2-(3-trifluoromethyl-phenyl)-ethyl]-9H-purin-6-ylamine]

Source: patent US7595401B2, “Therapeutic compounds and their use in cancer” (Myriad Pharmaceuticals, Inc., priority 2006, dated 2009)
